The source of these data is the NIST ThermoML archive (doi:10.1016/j.tca.2017.09.003).

For the data set the following is noted: Crystal; DTA.

The structures appear in SMILES notation. ± gives the expanded uncertainty stated by the source.

Take `Cc1oncc1C(=O)Nc1ccc(C(F)(F)F)cc1`: the Normal melting temperature was 169.00 ± 2 °C.
